From ChEMBL document CHEMBL4219093, “New 4-aryl-1,3,2-oxathiazolylium-5-olates: Chemical synthesis and photochemical stability of a novel series of S-nitrosothiols” (Bioorg Med Chem Lett, 2018)

How the values were obtained:
Assay type in all cases: physicochemical
[1] = Drug metabolism assessed as ring opening in EtOH/H2O at 75 mM measured after 40 mins under dark condition by UV-vis spectrophotometric method; conditions: for Drug metabolism: 40 min, 75000 µM; for degraded at 40 min: EtOH/H2O, read-out: Drug metabolism
[2] = Photochemical stability of the compound in EtOH/H2O assessed as ring opening by measuring compound decomposition at 75 mM measured in presence of ambient daylight conditions after 40 mins by UV-vis spectrophotometric method; conditions: for degraded at 40 min: EtOH/H2O, read-out: Drug degradation
[3] = Photochemical stability of the compound assessed as compound decomposition in phosphate buffer at pH 7.4 exposed to daylight at 0.4 mM measured over 3 hrs by UV-Vis absorbance method; conditions: read-out: Drug degradation

SMILES | Drug metabolism [1] | degraded at 40 min [1] | further results
[O-]c1on[s+]c1-c1ccc(F)cc1F | Metabolite_Detected | – | Stability ([2]; 40 min, 75000 µM): Stable
[O-]c1on[s+]c1-c1cccc(Cl)c1 | – | 40 to 80% | –
[O-]c1on[s+]c1-c1ccccc1Cl | Metabolite_Detected | – | –
[O-]c1on[s+]c1-c1ccc(Cl)cc1 | Metabolite_Detected | – | degraded at 40 min [2]: 42%
[O-]c1on[s+]c1-c1cc(F)cc(F)c1 | – | 40 to 80% | –
[O-]c1on[s+]c1-c1ccccc1 | – | 48% | degraded at 3 h, 400 µM [3]: 7%
[O-]c1on[s+]c1-c1ccc(F)cc1 | – | 40 to 80% | degraded at 40 min [2]: 76%
